Data: PubChem BioAssay (NCI)
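Where inhibition never reached the appropriate level, the endpoint shown equals the highest concentration tested. Otherwise, values were interpolated linearly from a five-concentration, 48-hour dose response in 96-well plates. The concentration for full growth arrest is given as TGI.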

Assays:
Assay in all cases: NCI-60 cell line screen, 48 h
[1] = system: MDA-N
[2] = system: SK-OV-3 ovarian
[3] = system: TK-10 renal
[4] = system: U251 CNS
[5] = system: MOLT-4 leukemia
[6] = system: OVCAR-3 ovarian
[7] = system: SK-MEL-28 melanoma
[8] = system: SW-620 colon
[9] = system: RPMI-8226 leukemia
[10] = system: UO-31 renal
[11] = system: SNB-75 CNS
[12] = system: HOP-92 NSCLC
[13] = system: NCI-H23 lung
[14] = system: SF-268 CNS
[15] = system: SNB-19 CNS
[16] = system: RXF 393 renal
[17] = system: HCC-2998 colon
[18] = system: COLO 205 colon
[19] = system: PC-3 prostate
[20] = system: HT29 colon
[21] = system: CAKI-1 renal
[22] = system: OVCAR-5 ovarian
[23] = system: DU-145 prostate
[24] = system: M14 melanoma
[25] = system: NCI-H226 lung
[26] = system: SK-MEL-5 melanoma
[27] = system: T-47D breast
[28] = system: K-562 leukemia
[29] = system: UACC-62 melanoma
[30] = system: IGROV1 ovarian
[31] = system: SN12C renal
[32] = system: NCI/ADR-RES ovarian
[33] = system: BT-549 breast
[34] = system: KM12 colon
[35] = system: HL-60(TB) leukemia
[36] = system: MALME-3M melanoma
[37] = system: HCT-15 colon
[38] = system: UACC-257 melanoma
[39] = system: LOX IMVI melanoma
[40] = system: EKVX NSCLC
[41] = system: OVCAR-8 ovarian
[42] = system: CCRF-CEM leukemia
[43] = system: NCI-H522 lung
[44] = system: A498 renal
[45] = system: A549 NSCLC
[46] = system: SF-295 CNS
[47] = system: SK-MEL-2 melanoma
[48] = system: 786-0 renal
[49] = system: SF-539 CNS
[50] = system: HOP-62 NSCLC
[51] = system: MDA-MB-435
[52] = system: MCF7 breast
[53] = system: HS 578T breast
[54] = system: MDA-MB-231 breast
[55] = system: SR leukemia
[56] = system: ACHN renal
[57] = system: OVCAR-4 ovarian
[58] = system: HCT-116 colon

Measured: TGI

c1n[nH]cc1C12C3C4C5C3C1C5C42 (stereo not drawn)
> 100 µM: all assays above
